Measured values: ChEMBL document CHEMBL1201862, “PubChem BioAssay data set” (2004)
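These data come from cells grown in 96-well plates and exposed to compound for 48 hours at five concentrations. GI50: concentration for 50% inhibition of growth.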 Calls of active or inactive are those of the source. No stated cut-off is given here; in the data, active = GI50 up to about 1.1 µM and inactive = higher.

Assays:
Assay in all cases: inhibition of tumour cell growth, NCI panel, 48 h
A549 = test system: A549
BT-549 = test system: BT-549
CCRF-CEM = test system: CCRF-CEM
DU-145 = test system: DU-145
EKVX = test system: EKVX
HCC 2998 = test system: HCC 2998
HCT-116 = test system: HCT-116
HCT-15 = test system: HCT-15
HL-60 = test system: HL-60
HT-29 = test system: HT-29
Hs-578T = test system: Hs-578T
K562 = test system: K562
MCF7 = test system: MCF7
MDA-MB-231 = test system: MDA-MB-231
MDA-MB-435 = test system: MDA-MB-435
MDA-N = test system: MDA-N
MOLT-4 = test system: MOLT-4
Malme-3M = test system: Malme-3M
NCI-H226 = test system: NCI-H226
NCI-H23 = test system: NCI-H23
NCI-H460 = test system: NCI-H460
NCI-H522 = test system: NCI-H522
NCI/ADR-RES = test system: NCI/ADR-RES
OVCAR-3 = test system: OVCAR-3
OVCAR-4 = test system: OVCAR-4
PC-3 = test system: PC-3
RXF 393 = test system: RXF 393
SK-MEL-28 = test system: SK-MEL-28
SK-MEL-5 = test system: SK-MEL-5
SN12C = test system: SN12C
SNB-75 = test system: SNB-75
SR = test system: SR
T47D = test system: T47D
TK-10 = test system: TK-10
UACC-257 = test system: UACC-257
UACC-62 = test system: UACC-62
UO-31 = test system: UO-31
786-0 = test system: 786-0
A498 = test system: A498
ACHN = test system: ACHN
CAKI-1 = test system: CAKI-1
COLO 205 = test system: COLO 205
HOP-62 = test system: HOP-62
HOP-92 = test system: HOP-92
IGROV-1 = test system: IGROV-1
KM12 = test system: KM12
LOX IMVI = test system: LOX IMVI
M14 = test system: M14
OVCAR-5 = test system: OVCAR-5
OVCAR-8 = test system: OVCAR-8
RPMI-8226 = test system: RPMI-8226
SF-268 = test system: SF-268
SF-295 = test system: SF-295
SF-539 = test system: SF-539
SK-MEL-2 = test system: SK-MEL-2
SK-OV-3 = test system: SK-OV-3
SNB-19 = test system: SNB-19
SW-620 = test system: SW-620
U-251 = test system: U-251

Measured: GI50

CC(C)=C1C(=O)C[C@@]2(C)C[C@H]3OC3(C)CC/C=C(/C)CCC12 (stereo partly drawn)
inactive: A549 75.2 µM | BT-549 99.5 µM | CCRF-CEM 58.7 µM | DU-145 > 100 µM | EKVX 48.2 µM | HCC 2998 > 100 µM | HCT-116 65 µM | HL-60 21.8 µM | HT-29 53.7 µM | Hs-578T > 100 µM | K562 50.6 µM | MCF7 71.9 µM | MDA-MB-231 > 100 µM | MDA-MB-435 64 µM | MDA-N > 100 µM | MOLT-4 35.4 µM | Malme-3M > 100 µM | NCI-H226 69.7 µM | NCI-H23 91.8 µM | NCI-H460 62.4 µM | NCI-H522 27.8 µM | NCI/ADR-RES 18.3 µM | OVCAR-3 56.8 µM | OVCAR-4 90.8 µM | PC-3 25.2 µM | RXF 393 > 10 µM | SK-MEL-28 > 100 µM | SK-MEL-5 > 100 µM | SN12C > 100 µM | SNB-75 80 µM | SR 70.6 µM | T47D 49.4 µM | TK-10 > 100 µM | UACC-257 50.4 µM | UACC-62 50.5 µM | UO-31 68.2 µM
75.9 µM: HCT-15

CCN1CCC(O)(/C=C/c2ccc(Cl)c(Cl)c2)C(C(=O)/C=C/c2ccc(Cl)c(Cl)c2)C1 (stereo not drawn)
inactive: 786-0 1.41 µM | CAKI-1 1.82 µM | DU-145 1.13 µM | HCC 2998 1.71 µM | MDA-N 1.55 µM | NCI-H226 1.84 µM | OVCAR-5 1.12 µM | RXF 393 1.35 µM | SF-539 1.95 µM | SK-OV-3 1.72 µM | SNB-19 1.89 µM | TK-10 1.32 µM | U-251 2.11 µM
active: A498 0.891 µM | A549 0.673 µM | ACHN 1.06 µM | BT-549 0.733 µM | CCRF-CEM 0.306 µM | COLO 205 0.705 µM | EKVX 0.731 µM | HCT-116 0.514 µM | HL-60 0.246 µM | HOP-62 0.951 µM | HOP-92 0.621 µM | HT-29 0.689 µM | Hs-578T 0.271 µM | IGROV-1 0.706 µM | K562 0.324 µM | KM12 0.713 µM | LOX IMVI 0.794 µM | M14 0.733 µM | MCF7 1.06 µM | MDA-MB-231 0.635 µM | MDA-MB-435 0.877 µM | MOLT-4 0.243 µM | Malme-3M 1.05 µM | NCI-H23 0.255 µM | NCI-H460 0.76 µM | NCI-H522 0.948 µM | NCI/ADR-RES 0.843 µM | OVCAR-3 0.764 µM | OVCAR-4 0.632 µM | OVCAR-8 0.745 µM | PC-3 0.329 µM | RPMI-8226 0.136 µM | SF-268 1.06 µM | SF-295 0.713 µM | SK-MEL-28 0.881 µM | SK-MEL-2 1.04 µM | SK-MEL-5 0.834 µM | SN12C 0.873 µM | SNB-75 1.01 µM | SW-620 0.466 µM | T47D 0.966 µM | UACC-257 0.986 µM | UACC-62 0.973 µM | UO-31 0.995 µM
1.89 µM: HCT-15

CC/C(Cl)=N\OC(=O)Nc1ccccc1OC(F)(F)F
active: NCI-H522 0.665 µM
3.21 µM: HCT-15
inactive: 786-0 10.1 µM | A498 19.6 µM | A549 22.6 µM | ACHN 1.91 µM | BT-549 3.11 µM | CAKI-1 1.89 µM | CCRF-CEM 1.75 µM | COLO 205 2.1 µM | DU-145 18.7 µM | EKVX 7 µM | HCC 2998 18.6 µM | HCT-116 7.08 µM | HL-60 1.97 µM | HOP-62 19 µM | HOP-92 2.39 µM | HT-29 21.3 µM | Hs-578T 30.2 µM | IGROV-1 15.8 µM | K562 1.95 µM | KM12 20.6 µM | LOX IMVI 2.34 µM | M14 6.9 µM | MCF7 9.12 µM | MDA-MB-231 17.1 µM | MDA-MB-435 19.4 µM | MDA-N 8.47 µM | MOLT-4 1.81 µM | Malme-3M 4.52 µM | NCI-H226 19.1 µM | NCI-H23 20.9 µM | NCI-H460 20.7 µM | NCI/ADR-RES 14.9 µM | OVCAR-3 8.22 µM | OVCAR-4 19.8 µM | OVCAR-5 20.1 µM | OVCAR-8 17.7 µM | PC-3 18.1 µM | RPMI-8226 1.73 µM | RXF 393 16.7 µM | SF-268 25.2 µM | SF-295 17.2 µM | SF-539 12.4 µM | SK-MEL-28 20.1 µM | SK-MEL-2 17.7 µM | SK-MEL-5 7.38 µM | SK-OV-3 20.2 µM | SN12C 7.05 µM | SNB-19 22.5 µM | SNB-75 19.7 µM | SW-620 2.52 µM | T47D 4.32 µM | TK-10 11.6 µM | U-251 26.4 µM | UACC-257 17.2 µM | UACC-62 17 µM | UO-31 8.18 µM
